Measured values reported in patent publication US5849259A, “3-,8-substituted deuteroporphyrin derivatives, pharmaceutical agents containing the latter and process for their production” (priority 1992, dated 1998).

Columns and labels:
Format in all cases: in vivo, nude mice (Balb/c nu/nu)
[1] = Tissue concentrations by ICP-AES after 0.1 mmol/kg i.v. in nude mice with subcutaneously implanted colon cancers (HT29, WiDr)
Procedure: (§1) a) 9 nude mice (Balb/c nu/nu) with subcutaneously implanted colon cancers (HT29, WiDr) were each administered by i.v. 0.1 mmol/kg of the mesoporphyrin derivative of example 1b (10 mmol/l dissolved in bidistilled water, pH 7.2, 37° C.). After 0.5, 3 and 24 hours the animals were killed and dissected. The tissue concentrations were determined after corresponding working-up (HNO3 conc.) by ICP-AES and calculated for % of the administered dose per gram of tissue net weight.
e) 9 nude mice (Balb/c nu/nu) with subcutaneously implanted colon cancers (HT29 and WiDr) were each administered by i.v. 0.1 mmol/kg of the deuteroporphyrin derivative of the compound according to example 1c (10 mmol/l dissolved in bidistilled water, pH 7.2, 37° C.). After 0.5, 3 and 24 hours, the animals were killed and dissected. The tissue concentrations were determined after corresponding working-up (HNO3 conc.) by ICP-AES and calculated for % of the administered dose per gram of tissue net weight. Moreover, tissue relaxation times T1 and T2 were determined (Bruker minispec pc 120).
as §1, with “9” for “a) 9”, “8e” for “1b”, “hours,” for “hours”
as §1, with “9” for “a) 9”, “0.1.” for “0.1”, “16f” for “1b”, “0.5 and” for “0.5,”, “3” for “3 and 24”
as §1, with “9” for “a) 9”, “18d” for “1b”, “0.5 and” for “0.5,”, “hours,” for “and 24 hours”
as §1, with “9” for “a) 9”, “19e” for “1b”, “hours,” for “hours”

[2] = system: HT29 and WiDr colon cancers; assay: Enhancement (signal intensity change, NMR imaging) in tissues with HT29/WiDr tumors, Example 22 Table 2
[3] = system: HT29 and WiDr colon cancer; assay: Signal intensity change in tissues of tumor-bearing (HT29 and WiDr colon cancer) nude mice, example 2c, 0.05 mmol/kg; conditions: 0.05 mmol/kg i.v.; for enhancement, HT29 / enhancement, Kidneys / enhancement, Liver / enhancement, Muscle / enhancement, WiDr: time 0 = 100
Procedure: On a Bruker Biospec nuclear spin tomograph (2.35 Tesla), the signal intensity change in various tissues of tumor-bearing (HT29 and WiDr colon cancer) nude mice (Balb/c nu/nu) was studied after i.v. administration of 0.05 mmol/kg of the compound according to example 2c (10 mmol/l, pH 7.2; 37° C. in bidistilled water). The measurement takes place with a multi slice single echo sequence (MSSE). Imaging parameters: TR: 400 ms, TE: 30 ms, layer thickness: 4 mm, number of averages: 4/slice, matrix 256^2. After a preliminary image, 0.05 mmol/kg of the substance was administered and the signal intensity change (relative to an internal standard) was studied 5, 30, 60, 120 and 180 minutes

[4] = Tissue concentrations by ICP-AES after 0.1 mmol/kg i.v. in nude mice with subcutaneously implanted colon cancers (HT29, WiDr); conditions: 2 hours p.i. (so in the source)

13,17-Bis-(15-carboxylato-6-oxo-8,11,14-tris-(carboxylatomethyl)-5,8,11,14-tetraazapentadecyl]-3,8-diethyl-2,7,12,18-tetramethylporphyrin, digadolinium complex, disodium salt [Example 19e]
decrease of tissue concentration except liver, relative to 0.5 hour p.i. ([1]; within 24 hours): 5-20 factor

N,N'-Bis[9-carboxylato-2,5-bis(carboxylatomethyl)-8-(ethoxycarboxymethyl-2,5,8-triazanonyl-carbamoyl]-mesoporphyrin-IX-13,17-diamide, digadolinium complex [Example 1b]
enhancement, HT29 ([2]; 5 min): 1.36 | enhancement, Kidneys ([2]; 5 min): 2.89 | enhancement, Liver ([2]; 5 min): 1.43 | enhancement, Muscle ([2]; 5 min): 1.41 | enhancement, WiDr ([2]; 5 min): 1.16 | signal intensity change, liver tissue ([2]; 5 minutes p.i.): marked signal intensity increase | enhancement, HT29 ([2]; 15 min): 1.49 | enhancement, Kidneys ([2]; 15 min): 2.70 | enhancement, Liver ([2]; 15 min): 1.43 | enhancement, Muscle ([2]; 15 min): 1.41 | enhancement, WiDr ([2]; 15 min): 1.16 | enhancement, HT29 ([2]; 30 min): 1.54 | enhancement, Kidneys ([2]; 30 min): 2.65 | enhancement, Liver ([2]; 30 min): 1.40 | enhancement, Muscle ([2]; 30 min): 1.39 | enhancement, WiDr ([2]; 30 min): 1.18 | enhancement, HT29 ([2]; 45 min): 1.55 | enhancement, Kidneys ([2]; 45 min): 2.79 | enhancement, Liver ([2]; 45 min): 1.42 | enhancement, Muscle ([2]; 45 min): 1.40 | enhancement, WiDr ([2]; 45 min): 1.25 | enhancement, HT29 ([2]; 60 min): 1.59 | enhancement, Kidneys ([2]; 60 min): 2.56 | enhancement, Liver ([2]; 60 min): 1.38 | enhancement, Muscle ([2]; 60 min): 1.29 | enhancement, WiDr ([2]; 60 min): 1.05 | enhancement, HT29 ([2]; 75 min): 1.97 | enhancement, Kidneys ([2]; 75 min): 2.53 | enhancement, Liver ([2]; 75 min): 1.51 | enhancement, Muscle ([2]; 75 min): 1.47 | enhancement, WiDr ([2]; 75 min): 1.23 | maximum enhancement, liver ([2]; 75 minutes p.i.): +50% | maximum enhancement, tumor ([2]; 75 minutes p.i.): +100% | enhancement, HT29 ([2]; 90 min): 1.51 | enhancement, Kidneys ([2]; 90 min): 2.40 | enhancement, Liver ([2]; 90 min): 1.43 | enhancement, Muscle ([2]; 90 min): 1.50 | enhancement, WiDr ([2]; 90 min): 1.28 | enhancement, HT29 ([2]; 120 min): 1.64 | enhancement, Kidneys ([2]; 120 min): 2.15 | enhancement, Liver ([2]; 120 min): 1.47 | enhancement, Muscle ([2]; 120 min): 1.34 | enhancement, WiDr ([2]; 120 min): 1.22 | enhancement, HT29 ([2]; 24 hours): 1.05 | enhancement, Kidneys ([2]; 24 hours): 1.51 | enhancement, Liver ([2]; 24 hours): 1.19 | enhancement, Muscle ([2]; 24 hours): 1.24 | enhancement, WiDr ([2]; 24 hours): 1.64 | signal intensity change, tumor ([2]; after 30 minutes): marked signal intensity increase | signal intensity change, kidneys ([2]; mouse, in vivo): stronger signal intensity change | signal intensity change, muscle ([2]; reference tissue): only a small change

N,N'-Bis[13-carboxylato-4-oxo-6,8,12-tris-(carboxylatomethyl)-3,6,9,12-tetraazatridecyl]-mesoporphyrin--IX-3,17-diamide, digadolinium complex, disodium salt [Example 2c]
time of greatest signal intensity difference [3]: 2 hours p.i. or 3 hours p.i. | enhancement, HT29 ([3]; 5 min): 171 ± 14 | enhancement, Kidneys ([3]; 5 min): 169 ± 45 | enhancement, Liver ([3]; 5 min): 173 ± 31 | enhancement, Muscle ([3]; 5 min): 143 ± 23 | enhancement, WiDr ([3]; 5 min): 165 ± 39 | signal intensity change, liver tissue and both tumors ([3]; 5 minutes p.i.): marked signal intensity increase | enhancement, HT29 ([3]; 30 min): 169 ± 14 | enhancement, Kidneys ([3]; 30 min): 211 ± 33 | enhancement, Liver ([3]; 30 min): 157 ± 30 | enhancement, Muscle ([3]; 30 min): 157 ± 29 | enhancement, WiDr ([3]; 30 min): 170 ± 32 | enhancement, HT29 ([3]; 60 min): 168 ± 12 | enhancement, Kidneys ([3]; 60 min): 207 ± 31 | enhancement, Liver ([3]; 60 min): 170 ± 16 | enhancement, Muscle ([3]; 60 min): 120 ± 8 | enhancement, WiDr ([3]; 60 min): 153 ± 33 | enhancement, HT29 ([3]; 120 min): 178 ± 32 | enhancement, Kidneys ([3]; 120 min): 191 ± 37 | enhancement, Liver ([3]; 120 min): 179 ± 37 | enhancement, Muscle ([3]; 120 min): 126 ± 10 | enhancement, WiDr ([3]; 120 min): 153 ± 0 | enhancement, HT29 ([3]; 180 min): 136 ± 23 | enhancement, Kidneys ([3]; 180 min): 136 ± 25 | enhancement, Liver ([3]; 180 min): 167 ± 7 | enhancement, Muscle ([3]; 180 min): 112 ± 9 | enhancement, WiDr ([3]; 180 min): 117 ± 33 | signal intensity change, muscle ([3]; reference tissue): only a small change | signal intensity change, kidneys ([3]; up to 2 hours p.i.): even stronger signal intensity change

Zinc(II)-{N,N'-bis[11-carboxylato-2-oxo-4,7,10-tris-(carboxylatomethyl)-1,4,7,10-tetraazaundecyl]-3,8-bis-(2-(naphth-1-yl)-ethyl)-deuteroporphyrin-IX-13,17-diamide}, digadolinium complex, disodium salt [Example 18d]
tissue concentration, HT29 tumor ([1]; 0.5 hour p.i.): 1.48 ± 0.28 % of the administered dose per gram of tissue net weight | tissue concentration, WiDr tumor ([1]; 0.5 hour p.i.): 1.94 ± 0.78 % of the administered dose per gram of tissue net weight | tissue concentration, blood ([1]; 0.5 hour p.i.): 24.44 ± 2.32 % of the administered dose per gram of tissue net weight | tissue concentration, intestine ([1]; 0.5 hour p.i.): 4.93 ± 0.90 % of the administered dose per gram of tissue net weight | tissue concentration, kidneys ([1]; 0.5 hour p.i.): 11.74 ± 2.38 % of the administered dose per gram of tissue net weight | tissue concentration, lung ([1]; 0.5 hour p.i.): 17.70 ± 2.50 % of the administered dose per gram of tissue net weight | tissue concentration, muscle ([1]; 0.5 hour p.i.): 0.89 ± 0.17 % of the administered dose per gram of tissue net weight | tissue concentration, rest of body ([1]; 0.5 hour p.i.): 2.38 ± 0.27 % of the administered dose per gram of tissue net weight | tissue concentration, skin ([1]; 0.5 hour p.i.): 3.71 ± 0.52 % of the administered dose per gram of tissue net weight | tissue concentration, spleen ([1]; 0.5 hour p.i.): 7.52 ± 0.40 % of the administered dose per gram of tissue net weight | tissue concentration, HT29 tumor ([1]; 3 hours p.i.): 3.53 ± 0.52 % of the administered dose per gram of tissue net weight | tissue concentration, WiDr tumor ([1]; 3 hours p.i.): 4.50 ± 0.98 % of the administered dose per gram of tissue net weight | tissue concentration, blood ([1]; 3 hours p.i.): 16.95 ± 1.53 % of the administered dose per gram of tissue net weight | tissue concentration, intestine ([1]; 3 hours p.i.): 2.31 ± 0.28 % of the administered dose per gram of tissue net weight | tissue concentration, kidneys ([1]; 3 hours p.i.): 20.41 ± 1.88 % of the administered dose per gram of tissue net weight | tissue concentration, liver ([1]; 3 hours p.i.): 16.89 ± 1.15 % of the administered dose per gram of tissue net weight | tissue concentration, lung ([1]; 3 hours p.i.): 17.56 ± 3.34 % of the administered dose per gram of tissue net weight | tissue concentration, muscle ([1]; 3 hours p.i.): 1.04 ± 0.06 % of the administered dose per gram of tissue net weight | tissue concentration, rest of body ([1]; 3 hours p.i.): 2.43 ± 0.13 % of the administered dose per gram of tissue net weight | tissue concentration, skin ([1]; 3 hours p.i.): 4.46 ± 0.53 % of the administered dose per gram of tissue net weight | tissue concentration, spleen ([1]; 3 hours p.i.): 10.82 ± 0.87 % of the administered dose per gram of tissue net weight | tissue concentration, liver [4]: ~17 % of the administered dose per
